Patent US20250018030A1, “PHARMACEUTICAL COMPOSITION FOR PROMOTING CANCER IMMUNOTHERAPY AND METHOD FOR PROMOTING CANCER IMMUNOTHERAPY” (China Medical University, priority 2023, published 2025)

Experiments:
[1] = test system: Tc1 cells; assay: Intracellular cytokine staining / flow cytometry of genipin-treated skewed Tc1 cells; format: cell-based, Mouse; conditions: added to genipin-treated Tc1 cells; FIG. 2R-2S
Experimental: Mouse lymph nodes and spleens were harvested, and naïve CD4 or CD8 T cells isolated via magnetic bead separation (STEMCELL Technologies) and activated in α-CD3 (10 μg/ml) and α-CD28 (1 μg/ml) pre-coated 96-well plates. Skewing conditions were as follows: Th1 cells/Tc1 cells ([…] 10 μ/ml α-IL-4), Th2 cells/Tc2 cells (20 ng/ml IL-4 and 10 μ/ml α-IFN-γ), Th17 cells/Tc17 cells (20 ng/ml IL-6, 1.25 ng/ml […], 20 ng/ml IL-1β, 20 ng/ml IL-23, 10 μg/ml α-IFN-γ and 10 μg/ml α-IL-4), and Treg cells (5 ng/ml TGF-β, 10 μg/ml α-IFN-γ and 10 μg/ml α-IL-4) in the indicated medium. Cells were cultured for 4-5 days followed by treatment with genipin (3.125 μM, 6.25 μM, 12.5 μM) or DMSO for 12-16 hours.
Monoclonal antibodies were purchased from BD Biosciences or eBioscience. For intracellular cytokine staining (ICS), cells were first restimulated by PMA/ionomycin for 5 hours in the presence of GolgiStop (BD Biosciences), followed by surface epitope staining markers before being fixed/permeabilized (BD Cytofix/Cytoperm™) and stained with antibodies targeting intracellular antigens. Cells were finally fixed with 1.5% formaldehyde for 10 minutes at room temperature and analyzed on a FACSVerse flow cytometer (BD Bioscience). Data were analyzed using FlowJo software (Tree Star Inc.).

[2] = test system: Tc1 cells; assay: Metabolic assays (Seahorse ECAR/OCR, mitochondrial pyruvate and acetyl CoA) in Tc1 cells; format: cell-based, Mouse; conditions: UK5099 40 μM added to genipin-treated Tc1 cells; FIG. 2G-2L
Experimental: The real-time extracellular acidification rate (ECAR) and oxygen consumption rate (OCR) were measured using a Seahorse XF24 analyzer (Seahorse Bioscience), within XF Glycolysis Stress and XF Cell Mito Stress Test kits used to assess glycolysis and oxidative phosphorylation. 5×10^5 cells exposed to the indicated treatments were plated in an XF-24 microplate coated with Cell-Tak (Corning) one day before the assay. ECAR and OCR were measured after metabolic manipulations by the addition of oligomycin, carbonyl cyanide-p-trifluoromethoxy-phenylhydrazone (FCCP), 2-deoxyglucose (2-DG) and rotenone/anti-mycin A (R/A). Calculations were conducted with Agilent Seahorse Wave Software for Agilent Seahorse XF analyzers (Seahorse Bioscience). For isolation of mitochondria, Tc1 cells were frozen and thawed to weaken the membranes and resuspended in Reagent A of a mitochondria isolation kit (ab110170, Abcam), before being homogenized and centrifuged at 1,000×g for 10 minutes at 4° C. Supernatant was saved (SN #1) and the pellet resuspended in Reagent B. After homogenization and centrifugation, supernatant was saved (SN #2). SN #1 and SN #2 were mixed thoroughly and centrifuged at 12,000×g for 15 minutes at 4° C. The pellet was collected in Reagent C supplemented with protease inhibitors and was used for the pyruvate and acetyl COA assays. Briefly, the mitochondrial pyruvate and acetyl CoA levels in the Tc1 cells were assessed using a commercial Pyruvate Assay Kit (ab65342, Abcam) and PicoProbe Acetyl COA Assay Kit (ab87546, Abcam) according to the manufacturer's instructions.

With `N#C/C(=C\c1cn(-c2ccccc2)c2ccccc12)C(=O)O` [UK5099] the “T-bet expression in genipin-treated (UCP2-deprived) Tc1 cells, effect of added inhibitor” value [1] was “blocked the positive regulation of T-bet” and the “Genipin-driven Tc1 effects (mitochondrial acetyl CoA, mitochondrial pyruvate, histone H3 acetylation, H3K9 acetylation, OCR, IFN-γ), effect of added inhibitor” value [2] was “could be reversed”.
